Experimental data taken from US4312605A, “Method for grouting joints and/or cracks in sewer conduits” (Hayward Baker Company, priority 1980, dated 1982).

Experiments:
[1] = Gel time of grout mixtures after mixing components A and B; format: physicochemical; settings: used instead of MgA in the monomer composition
Procedure: To 50 parts of each of the stock solutions a, b, c, d, and e, there is added 1.0 part of TEA (95% in water) and to another 50 parts of each of the stock solutions, there is added 2.0 parts of TEA (95% in water). The resulting ten solutions containing TEA, the latter five having twice as much TEA as the first five, are examples of component A that can be mixed with an approximately equal volume of initiator component B which in its simplest make-up consists of a solution in water of ammonium persulfate (AP).
The component B that is used with each of the first five of the TEA/monomer component A solutions is a solution of 2% AP in water, approximately 50 parts of the 2% AP solution being mixed, as at the discharge header of a packer, with 50 parts of the respective component A solution. These first five A and B mixtures when used in the field at about 20° (68° F.) have gel times of about 30 seconds. The component B made up for use with the last group of five TEA/monomer components A is a solution of 4% AP in water. When the latter AP solution is forced at approximately a rate of 50 parts for each 50 parts of a respective one of the last five TEA/monomer component A solutions through separate feed lines to the packer at field temperatures of about 10° (50° F.), the grout mixtures A and B give approximately 30-second gel times.

[2] = 4 to 25% calcium acrylate based on dry soil weight, redox catalyst; U.S. Pat. No. 2,651,619; cited from earlier work
[3] = Precipitation of crosslinker from aqueous monomer solution; format: physicochemical; settings: based on total metal acrylate salt; aqueous monomer solution 20-40% solids, especially if shaken
[4] = cited from earlier work
albino rats [5] = settings: cited from earlier work
albino rats [6] = experiment: Acute toxicity (LD50) of grout monomers; format: in vivo; settings: from LD50 of MBA vs acrylamide

Compound: C=CC(=O)O [calcium acrylate (CaA), calcium acrylate]
- gel time (in words) [1]: long gel time
- compressive strength of stabilized soil [2]: up to 600 psi

Compound: C=CC(=O)NCNC(=O)C=C [MBA, N,N'-methylenebisacrylamide]
- amount of crosslinker above which it tends to precipitate [3]: about 4 % by weight
- neurotoxicity ([4]; at dose schedules and conditions employed (MRI Project No. 4308-N, page 287)): not neurotoxic
- LD50 (albino rats [5]): 390 mg/kg
- monomer toxicity (factor relative to acrylamide) (albino rats [6]): 1/2

Compound: C=CC(N)=O [acrylamide]
- neurotoxicity (general statement) ([4]; in vivo): a neurotoxic chemical
